Measurements: ChEMBL document CHEMBL1201862, “PubChem BioAssay data set” (2004)
Active and inactive are the calls of the source.

Assays:
Caspase-3 = target: T1, Caspase-3 (Homo sapiens, UniProt P42574); assay type: functional;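 note: Dose-response selectivity test against caspase-3 for candidate inhibitors of sentrin-specific proteases (SENPs)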
T1 sequence (P42574 whole entry): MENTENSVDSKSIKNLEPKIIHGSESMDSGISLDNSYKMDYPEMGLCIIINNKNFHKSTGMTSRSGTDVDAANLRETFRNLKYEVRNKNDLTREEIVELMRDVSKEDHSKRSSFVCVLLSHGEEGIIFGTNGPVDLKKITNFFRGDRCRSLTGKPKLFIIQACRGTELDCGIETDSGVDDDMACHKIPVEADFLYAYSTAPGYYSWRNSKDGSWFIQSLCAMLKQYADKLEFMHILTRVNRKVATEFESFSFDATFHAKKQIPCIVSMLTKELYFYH

[1] = target: T2, Oxysterols receptor LXR-beta (Homo sapiens, UniProt P55055); assay type: functional, cell-based;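 note: agonist activity at LXR measured by a cell-based luminescence readout across a dose range, run as a counterscreen for daf-12 agonists; HEK293 cells with Gal4-LXR fusion and GAL4-driven luciferase reporter; potency for activation of Gal4-LXR reporter so compounds are agonists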
T2 sequence (P55055 whole entry): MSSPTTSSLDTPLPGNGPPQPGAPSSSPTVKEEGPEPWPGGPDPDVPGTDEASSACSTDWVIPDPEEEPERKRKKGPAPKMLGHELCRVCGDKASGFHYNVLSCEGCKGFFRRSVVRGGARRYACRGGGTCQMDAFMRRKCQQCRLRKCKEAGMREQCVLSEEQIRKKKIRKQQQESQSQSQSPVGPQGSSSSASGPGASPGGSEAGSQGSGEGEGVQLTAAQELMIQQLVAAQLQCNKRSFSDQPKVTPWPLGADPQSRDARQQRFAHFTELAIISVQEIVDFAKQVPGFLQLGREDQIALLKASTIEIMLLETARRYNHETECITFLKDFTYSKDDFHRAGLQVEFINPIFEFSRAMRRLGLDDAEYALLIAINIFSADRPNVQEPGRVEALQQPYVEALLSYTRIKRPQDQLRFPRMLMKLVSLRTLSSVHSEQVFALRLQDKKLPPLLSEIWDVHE

[2] = target: T3, Sentrin-specific protease 8 (Homo sapiens, UniProt Q96LD8); assay type: functional;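 note: luminescence read-out of SENP8 inhibition, dose-response confirmation following an ultra-high-throughput screen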
T3 sequence (Q96LD8 whole entry): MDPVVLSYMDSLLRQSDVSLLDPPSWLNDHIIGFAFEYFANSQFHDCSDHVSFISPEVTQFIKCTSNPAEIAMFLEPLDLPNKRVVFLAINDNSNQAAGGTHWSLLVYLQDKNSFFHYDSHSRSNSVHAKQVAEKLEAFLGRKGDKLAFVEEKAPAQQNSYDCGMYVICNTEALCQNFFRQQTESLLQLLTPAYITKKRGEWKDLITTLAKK

[3] = target: T4, Sentrin-specific protease 7 (Homo sapiens, UniProt Q9BQF6); assay type: functional;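 note: Luminescence-based dose-response confirmation of ultra-high-throughput screening hits, measuring inhibition of SENP7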
T4 sequence (Q9BQF6 whole entry): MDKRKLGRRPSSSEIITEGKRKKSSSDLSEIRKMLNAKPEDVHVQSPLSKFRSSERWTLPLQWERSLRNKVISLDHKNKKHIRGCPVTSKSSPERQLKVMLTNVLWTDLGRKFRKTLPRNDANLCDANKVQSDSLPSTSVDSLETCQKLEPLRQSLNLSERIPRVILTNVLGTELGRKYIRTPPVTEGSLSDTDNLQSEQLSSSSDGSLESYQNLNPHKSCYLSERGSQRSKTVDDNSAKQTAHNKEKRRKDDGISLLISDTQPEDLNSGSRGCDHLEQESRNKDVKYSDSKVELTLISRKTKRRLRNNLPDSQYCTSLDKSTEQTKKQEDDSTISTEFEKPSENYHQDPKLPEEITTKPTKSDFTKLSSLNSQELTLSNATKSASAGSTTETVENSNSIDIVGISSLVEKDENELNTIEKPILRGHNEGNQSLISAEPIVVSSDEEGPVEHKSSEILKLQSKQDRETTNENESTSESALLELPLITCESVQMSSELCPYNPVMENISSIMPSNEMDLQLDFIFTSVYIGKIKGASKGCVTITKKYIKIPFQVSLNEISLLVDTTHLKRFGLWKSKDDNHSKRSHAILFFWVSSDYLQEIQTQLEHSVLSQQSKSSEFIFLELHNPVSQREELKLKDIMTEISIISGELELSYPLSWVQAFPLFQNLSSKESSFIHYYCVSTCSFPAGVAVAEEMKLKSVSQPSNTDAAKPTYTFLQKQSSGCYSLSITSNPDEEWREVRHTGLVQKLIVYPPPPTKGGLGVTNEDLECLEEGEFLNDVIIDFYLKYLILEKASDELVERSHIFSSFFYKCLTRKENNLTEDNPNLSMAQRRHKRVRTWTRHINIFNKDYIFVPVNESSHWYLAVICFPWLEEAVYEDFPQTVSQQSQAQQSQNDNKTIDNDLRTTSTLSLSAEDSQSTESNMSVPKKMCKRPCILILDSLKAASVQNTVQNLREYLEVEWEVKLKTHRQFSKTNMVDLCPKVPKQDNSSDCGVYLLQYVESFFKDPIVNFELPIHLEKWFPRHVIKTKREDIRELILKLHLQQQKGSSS

[4] = target: T5, Sentrin-specific protease 6 (Homo sapiens, UniProt Q9GZR1); assay type: functional;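 note: Luminescence-based dose-response confirmatory assay of SENP6 inhibition, following up an ultra-high-throughput screen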
T5 sequence (Q9GZR1 whole entry): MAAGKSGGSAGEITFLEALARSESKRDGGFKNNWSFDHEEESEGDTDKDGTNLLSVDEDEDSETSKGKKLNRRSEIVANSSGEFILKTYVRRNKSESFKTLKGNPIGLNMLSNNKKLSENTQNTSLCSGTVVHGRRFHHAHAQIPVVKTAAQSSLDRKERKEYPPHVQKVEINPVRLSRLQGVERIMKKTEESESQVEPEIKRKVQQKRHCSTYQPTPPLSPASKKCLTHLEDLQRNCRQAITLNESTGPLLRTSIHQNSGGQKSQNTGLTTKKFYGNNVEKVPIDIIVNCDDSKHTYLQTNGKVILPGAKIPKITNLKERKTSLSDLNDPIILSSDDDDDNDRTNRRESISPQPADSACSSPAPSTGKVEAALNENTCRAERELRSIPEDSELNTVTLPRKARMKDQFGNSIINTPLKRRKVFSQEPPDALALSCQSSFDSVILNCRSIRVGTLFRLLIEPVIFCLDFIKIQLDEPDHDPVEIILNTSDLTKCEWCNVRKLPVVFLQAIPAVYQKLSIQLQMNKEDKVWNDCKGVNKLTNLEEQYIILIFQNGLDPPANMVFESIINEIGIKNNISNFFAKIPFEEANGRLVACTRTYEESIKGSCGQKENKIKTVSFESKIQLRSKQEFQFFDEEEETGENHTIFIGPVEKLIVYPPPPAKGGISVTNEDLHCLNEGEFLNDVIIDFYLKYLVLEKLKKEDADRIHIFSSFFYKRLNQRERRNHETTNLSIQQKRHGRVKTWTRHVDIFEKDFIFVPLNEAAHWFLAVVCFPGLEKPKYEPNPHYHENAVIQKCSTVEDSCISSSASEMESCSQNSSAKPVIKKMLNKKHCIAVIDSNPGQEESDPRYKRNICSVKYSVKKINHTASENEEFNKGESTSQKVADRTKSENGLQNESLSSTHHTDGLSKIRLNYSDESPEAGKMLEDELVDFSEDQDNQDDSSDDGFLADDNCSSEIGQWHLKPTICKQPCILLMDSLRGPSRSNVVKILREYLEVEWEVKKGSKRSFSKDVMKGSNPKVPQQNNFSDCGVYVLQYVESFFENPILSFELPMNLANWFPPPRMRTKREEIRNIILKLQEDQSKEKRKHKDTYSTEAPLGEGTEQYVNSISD

[5] = target: T6, Endoribonuclease toxin MazF (Escherichia coli K-12, UniProt P0AE70); experiment: substrate-only fluorescence increase artefacts – biochemical, single-stranded RNase substrate, counter-screen for MazEF activator project, dose response (AID 588502); assay type: functional
T6 sequence (P0AE70 whole entry): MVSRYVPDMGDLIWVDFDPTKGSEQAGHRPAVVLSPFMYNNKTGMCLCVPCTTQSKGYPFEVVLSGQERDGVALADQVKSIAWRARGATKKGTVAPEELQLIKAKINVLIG

[6] = target: T6, Endoribonuclease toxin MazF; experiment: activation of MazEF endoribonuclease cleavage – biochemical, fluorescence, single-stranded RNA substrate, uHTS hits, dose response (AID 588481); assay type: functional
[7] = target: T7, Corticotropin-releasing factor receptor 2/Corticotropin-releasing factor-binding protein (Homo sapiens, UniProt P24387+Q13324); experiment: activators of CRF receptor 2 with binding protein – uHTS hits, confirmation (AID 602473); assay type: functional; conditions: read-out: EC50_Mean
T7 sequence (Q13324 whole entry): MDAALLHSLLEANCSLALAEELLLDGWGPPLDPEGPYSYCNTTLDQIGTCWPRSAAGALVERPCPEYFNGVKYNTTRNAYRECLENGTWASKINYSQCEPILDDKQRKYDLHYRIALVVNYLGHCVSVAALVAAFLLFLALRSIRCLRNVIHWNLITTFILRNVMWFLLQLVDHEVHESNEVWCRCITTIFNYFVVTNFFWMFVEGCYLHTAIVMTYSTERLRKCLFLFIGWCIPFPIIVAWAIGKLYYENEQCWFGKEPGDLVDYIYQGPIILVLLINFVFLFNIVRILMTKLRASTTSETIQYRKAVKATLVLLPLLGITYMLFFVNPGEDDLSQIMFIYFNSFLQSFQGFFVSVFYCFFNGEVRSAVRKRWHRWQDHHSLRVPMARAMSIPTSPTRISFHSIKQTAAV
T7 sequence (P24387 whole entry): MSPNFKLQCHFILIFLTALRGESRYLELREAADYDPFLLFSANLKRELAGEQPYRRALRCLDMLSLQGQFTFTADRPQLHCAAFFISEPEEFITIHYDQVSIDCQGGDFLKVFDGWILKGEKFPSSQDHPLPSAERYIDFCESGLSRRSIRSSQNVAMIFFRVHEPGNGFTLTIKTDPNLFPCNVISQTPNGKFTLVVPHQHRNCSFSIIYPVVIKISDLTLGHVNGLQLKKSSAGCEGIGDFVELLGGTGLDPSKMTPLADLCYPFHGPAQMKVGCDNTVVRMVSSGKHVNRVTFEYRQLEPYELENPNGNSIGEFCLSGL

HEK293 = experiment: EBV LMP1 TES2 canonical NF-kB signalling blockers – cell-based, HEK293, luciferase, cherry-pick, dose response (AID 588343); assay type: functional; conditions: Homo sapiens
[8] = target: T8, Short transient receptor potential channel 4 (Mus musculus, UniProt Q9QUQ5); experiment: block of DAMGO-driven TRPC4 calcium entry – cell-based, HEK293 TRPC4/mu-opioid, Fluo-4 calcium, dose response (AID 434942); assay type: functional;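 note: potency of inhibitors blocking the TRPC4 calcium response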
T8 sequence (Q9QUQ5 whole entry): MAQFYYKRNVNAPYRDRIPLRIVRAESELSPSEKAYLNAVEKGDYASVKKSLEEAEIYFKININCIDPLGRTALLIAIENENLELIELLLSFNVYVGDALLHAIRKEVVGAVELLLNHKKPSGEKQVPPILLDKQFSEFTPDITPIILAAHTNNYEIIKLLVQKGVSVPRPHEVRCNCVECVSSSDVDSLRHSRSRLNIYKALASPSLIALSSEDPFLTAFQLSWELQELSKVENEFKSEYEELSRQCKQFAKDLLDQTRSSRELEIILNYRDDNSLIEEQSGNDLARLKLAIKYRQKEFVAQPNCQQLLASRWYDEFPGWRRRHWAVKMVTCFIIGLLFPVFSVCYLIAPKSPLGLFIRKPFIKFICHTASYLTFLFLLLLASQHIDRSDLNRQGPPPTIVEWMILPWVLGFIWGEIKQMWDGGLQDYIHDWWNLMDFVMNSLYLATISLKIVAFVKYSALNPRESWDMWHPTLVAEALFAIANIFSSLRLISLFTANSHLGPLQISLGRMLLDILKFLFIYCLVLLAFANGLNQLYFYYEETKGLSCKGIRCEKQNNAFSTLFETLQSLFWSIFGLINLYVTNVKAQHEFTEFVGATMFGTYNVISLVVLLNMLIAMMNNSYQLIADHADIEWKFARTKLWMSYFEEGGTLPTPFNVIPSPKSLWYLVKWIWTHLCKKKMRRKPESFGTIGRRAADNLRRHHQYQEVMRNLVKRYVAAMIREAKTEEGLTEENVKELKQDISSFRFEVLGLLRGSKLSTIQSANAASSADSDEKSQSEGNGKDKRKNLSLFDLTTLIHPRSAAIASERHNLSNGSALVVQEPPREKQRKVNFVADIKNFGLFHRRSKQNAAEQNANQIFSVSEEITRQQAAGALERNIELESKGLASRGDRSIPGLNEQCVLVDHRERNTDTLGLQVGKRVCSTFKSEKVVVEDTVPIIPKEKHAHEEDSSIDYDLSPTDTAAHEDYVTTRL

Compound | IC50 (Caspase-3) | IC50 [2] | IC50 [3] | IC50 [4] | EC50 [5] | EC50 [6] | further results
Cc1c(C(=O)Nc2ccccc2)csc1-c1ccccc1 | 19.3 µM (active) | 7.47 µM (active) | 8.96 µM (active) | 6.64 µM (active) |  |  | EC50 [1]: > 67.5 µM (inactive)
CCN(CC)S(=O)(=O)c1ccc2oc(Nc3ccccc3)nc2c1 | 29.7 µM (active) | > 100 µM (inactive) | 9.19 µM (active) | > 100 µM (inactive) |  |  | 
CCOc1ccc(S(=O)(=O)NN)cc1 |  |  |  |  | 23.9 µM (inactive) | > 99 µM (inactive) | 
CCCNC(=O)Cn1c(=O)/c(=C\c2ccc(-c3cccc([N+](=O)[O-])c3)o2)s/c1=C\C(=O)C(C)(C)C |  |  |  |  | > 99 µM (inactive) | > 99 µM (inactive) | EC50 [7]: > 53 µM (inactive)
Cc1ccc(CN2CCN(CC(=O)N/N=C/c3ccccc3F)CC2)cc1 | 34.4 µM (active) | > 100 µM (inactive) | 14.3 µM (active) | 27 µM (active) |  |  | 
CCn1c2ccccc2c2cc(/C=N/NC(=O)c3cc(O)cc(O)c3)ccc21 |  |  |  |  |  |  | AC50 (HEK293): 8.43 µM (active); EC50 [8]: 0.749 µM (active)
